Measurements reported in patent US20250127896A1, “CHIMERIC TIM4 RECEPTORS AND USES THEREOF” (CERO THERAPEUTICS HOLDINGS, INC., priority 2021, published 2025).

What was measured:
[1] = test system: A2780 ovarian cancer cells; test: T cell phenotype (CCR7, CD4/CD8) and proliferation in A2780 / PARP inhibitor co-culture; type: cell-based, human; settings: for CCR7 expression (% CCR7+ cells in Tim4+ T cells): 120 hours co-culture with olaparib-treated A2780 cells; for CER T cell proliferation: co-cultures treated with PARPi vs wtTIM-4 T cells or no drug, E:T 1:1
Excerpt: FIGS. 27A-27B show a (FIG. 27A) schematic of chimeric Tim4 receptors, CER-1234 and CER1236 of the present disclosure; and (FIG. 27B) a schematic of assay set up for assessing immune phenotype of the chimeric Tim4 receptors in co-culture with PARP inhibitor treated ovarian cancer cells. CER-1234 and CER1236 have an extracellular Tim4 binding domain, CD28 transmembrane domain, CD28 signaling domain, TLR2 signaling domain, and CD3ζ signaling domain, and showing the orientation of the signaling domains in the chimeric Tim4 receptor constructs. A control molecule, CER-1183, having a Tim4 extracellular binding domain, a Tim4 transmembrane domain, and Tim4 signaling domain is also depicted.
Samples on bar graph from left to right: A2780+ T cell, A2780+ T cell +niraparib, and A2780+ T cell +olaparib. […] For FIGS. 29A-29C, co-culture conditions A2780+ T cell; A2780+ T cell +niraparib; A27080+ T cell +olaparib are shown from left to right in the bar graph for each donor T cell sample.
FIGS. 30A-30C show CD4/CD8 T cell ratio at 120 hours of co-culture of chimeric Tim4 receptor transduced T cells, olaparib or niraparib, and target A2780 ovarian cancer cells. Samples on bar graph from left to right: A2780+ T cell, A2780+T cell +niraparib, and A2780+ T cell +olaparib. […] For FIGS. 4A-4C, co-culture conditions A2780+ T cell; A2780+ T cell +niraparib; A27080+T cell +olaparib are shown from left to right in the bar graph for each donor T cell sample.
Expression of TIM-4, CD45RA, and CCR7 as well as CD4/CD8 ratios were evaluated by flow cytometry using commercially available fluorochrome-conjugated antibodies. Proliferation was measured by flow cytometry using precision count beads to determine the absolute counts of viable T cells at the end of the co-culture. T-cell proliferation is reported as the fold expansion of T cell counts at 120 hours relative to 0 hours.

NSCLC H1975 cells [2] = test: T cell expansion in H1975 co-culture with osimertinib (quantitative flow cytometry); type: cell-based
Procedure: FIG. 41: Bar graphs showing fold expansion of total CD3+ T cells (untransduced+vehicle, untransduced+osimertinib, CER1236+vehicle, CER1236+osimertinib) determined by quantitative flow cytometry using quantitation beads over a time course (48 hrs, 96 hrs, 120 hrs, and 144 hrs).
FIG. 42: Flow cytometry plots measuring CD3+ cells (y-axis) and H1975 cell (x-axis) in co-culture experiments with H1975 cells pretreated with vehicle or osimertinib ([…], 19.53 nM) and untransduced T cells (top row) or CER1236 T cells (bottom row).
Proliferation of CER1236 T cells co-cultured with H1975 NSCLC cells pre-treated with osimertinib or vehicle was also measured. […] Total CD3+ T cells fold expansion was determined by quantitative flow cytometry using quantitation beads over a time course (48 hrs, 96 hrs, 120 hrs, and 144 hrs). Experiment was performed twice, once with 5,000 target H1975 cells and once with 10,000 target H1975 cells.

[3] = test system: A2780 ovarian cancer cells; test: Cytokine production by CER T cells co-cultured with PARP inhibitor-treated A2780 cells; type: cell-based, human; settings: for TNF-α, IFN-γ, granzyme B induction: PARP inhibitor-treated A2780, E:T 1:1
Procedure: FIGS. 35A-35C: Cytokine production by CER T cells in response to co-culture with PARP inhibitor-treated A2780 ovarian cancer cells. Samples from left to right: no drug, niraparib treated, and olaparib treated. FIG. 35A-IFN-γ. FIG. 35B-TNF-α. FIG. 35C-granzyme B.
CER T-cell activation was assessed by measuring induction of IFN-gamma by plate- and cell-based assays. Single induction plate assay: varying concentrations of phosphatidylserine (PS) or phosphatidylethanolamine (PE), a control membrane phospholipid not recognized by wild type TIM-4 (wtTIM-4), were coated onto high-binding tissue culture plates. CER T cells were added and IFN-γ levels were measured 24 hours after ligand exposure by ELISA. EC50 concentrations were determined by nonlinear regression (agonist vs. response-variable slope (4 parameters)). Induction by recursive stimulation plate assay: CER T cells were added to phosphatidylserine coated plates (2.5-20 μg/mL PS coating). Five days later, CER T cells were transferred to uncoated plates with fresh T cell optimizer media for 24 hours. Then, CER T cells were transferred again to a fresh PS coated plate. Supernatant was collected to assess IFN-γ induction by ELISA at various timepoints during re-stimulation (24, 72, and 120 hours). Cell-based assay: cytokine induction was assessed by multiparametric ELISA using conditioned supernatants harvested after 120 hours from the cytotoxicity assay described below.

NSCLC H1975 cells [4] = test: Cytokine production by CER1236 T cells co-cultured with H1975 cells and osimertinib (Ella); type: cell-based; settings: 96 h, E:T 1:4, vs vehicle and untransduced T cells
Procedure: FIG. 40: Graphs showing cytokine production by CER1236 T cells co-cultured with NSCLC H1975 cells with 100 nM osimertinib or vehicle (left to right: granzyme B, TNFα, IL-6, and IFNγ).
Cytokine production was also measured in CER1236 T cells co-cultured with H1975 NSCLC cells pre-treated with osimertinib or vehicle. Ten-thousand NSCLC H1975 cells were cultured for 24 h with 100 nM Osimertinib or vehicle (DMSO) and then co-cultured with CER T cells for 96 h at an E:T of 1:4 in the presence or absence of 4.88 nM Osimertinib or vehicle. Effector:Target ratio was 1:4, and H1975 cells were plated at 10,000 cells/well. Cytokine production was determined by Ella assay.

REC-1 cells = test: T-cell activation markers PD-1 and 4-1BB in co-culture with REC-1 cells (flow cytometry); type: cell-based; settings: co-culture with REC-1 cells in the presence of 0.5 μM ibrutinib, 96 hours
Procedure: FIGS. 15A-15B: Induction of Cell-Surface Markers of T-Cell Activation in Ibrutinib-Treated Co-Cultures of CER1183 and CER1234 T cells and REC-1 Target Cells. Samples depicted in bar graphs from left to right, untransduced, CER-1183, and CER-1234. FIG. 15A: PD-1 expression in co-cultures. FIG. 15B: 4-1BB expression in co-cultures.
T-cell activation markers programmed death-1 (PD-1) and 4-1BB were evaluated on viable CD3+ T cells by flow cytometry using commercially available fluorochrome-conjugated antibodies. […] Assays were conducted 96 hours after initiation of co-culture of CER T cells with REC-1 cells.

[5] = either drug combined, 96 hours, compared to CER-1234 with no drug

| Substance | CD4/CD8 ratio ([1]; 120 hours co-culture with PARPi-treated A2780, donor 38 and donor 41) | CCR7 expression (% CCR7+ cells in Tim4+ T cells) [1] | CER T cell proliferation [1] | CD3+ T cell proliferation and H1975 cell numbers, osimertinib-treated H1975 (NSCLC H1975 cells [2]; 120 hours, 4:1 effector:target ratio, flow cytometry) | total CD3+ T cells fold expansion, combination with osimertinib (NSCLC H1975 cells [2]; E:T 1:4, 48, 96, 120, 144 hrs) | TNF-α, IFN-γ, granzyme B induction [3] | cytokine production (granzyme B, TNFα, IL-6, IFNγ), combination with osimertinib (NSCLC H1975 cells [4]) | PD-1 and 4-1BB expression on the T-cell surface (REC-1 cells) | Interferon-γ increase [3, 5] [fold] | granzyme B increase [3, 5] |
| --- | --- | --- | --- | --- | --- | --- | --- | --- | --- | --- |
| CER-1236: chimeric Tim4 receptor: Tim4 binding domain-CD28tm-CD28-CD3z-TLR2 TIR, SEQ ID NO:19; tested as transduced T cells | higher CD4/CD8 ratios | Higher CCR7 expression | proliferated in co-cultures treated with PARPi | CD3+ T cell proliferation was highest and H1975 cell numbers lowest | osimertinib drives CER1236 T cell proliferation | induced | increased cytokine production | – | – | – |
| CER-1234: chimeric Tim4 receptor: Tim4 binding domain-CD28tm-CD28-TLR2 TIR-CD3z, SEQ ID NO:18; tested as transduced T cells | – | Higher CCR7 expression | proliferated in co-cultures treated with PARPi | – | – | induced | – | increased PD-1 and 4-1BB expression | 7 | 5-7 fold |
